Experiments:
[1] = system: human B-lymphoma cells; experiment: B-lymphoma homing assay in NOD.CB17-Prkdcscid/J mice; type: in vivo
Description: Effect on the homing of the B-lymphocytes was tested in a model of B-cell lymphoma. Compound of Formula 2 (7.5 μM) was injected IV, together with 10×10^6 human B-lymphoma cells. After one and a half hours the amount of B-lymphocytes was tested in different organs.

[2] = system: HUVECs intercellular junctions; experiment: Phenotypic changes at endothelial junctions (MesenFlow system); type: cell-based, human
Excerpt: This manifestation was termed “Fluttering”. Fluttering was characterized by a rapid fluctuating movement at the intercellular junctions of adjacent HUVECs, and predominantly within tri-cellular corners. This was characterized by a rapid change in phase at the cellular edges consistent with a physical movement that was associated with no leukocytes adhesion or migration within these regions (FIG. 27). […] This observation is therefore representative of a phenotype that is indicative of a disruption in leukocyte transmigration.

[3] = system: DBA/1 mice; experiment: Collagen induced arthritis (CIA) model; type: in vivo, mouse
Description: Male DBA/lOlaHsd mice (7-8 weeks of age) were injected with CII (Type II collagen)+CFA (complete Frennd's adjuvant) emulsion on Day 0 (S.C.) to persuade collagen induced arthritis (CIA). On Day 21 the animals receive the same amount of the emulsion as a booster. Twice between Days 0 and 18 after immunization (before enrollment begins), both hind paws of all mice were measured using calipers to establish baseline values for paw thickness. On Day 22 mice were enrolled into groups when they first shown paw swelling and treatment was initiated. A working formulation of compound of Formula 2 was administered by IP injections at 15 mg/kg dose at q3w regiment. Mock treated (vehicle) control group was administered IP with the same volume and regiment as a treatment group. Administration was performed at a constant volume dosage based on individual body weight. The severity of CIA was monitored daily. The CIA scoring is on the scale of 0 to 16 (0 to 4 for each paw, adding the scores for all 4 paws). On day 43 (24 hours post last dose administration) all paws thickness was measured and mice were euthanized. All limbs from each mouse were placed in individual labeled tubes, fixed in 4% buffered formalin, paraffin embedded and sectioned. Histological score was assessed using hematoxylin and eosin (H&E) stained sections. Joints were scored for inflammation, cartilage damage, pannus formation, and bone resorption on a scale of 0 to 3 for each readout. Two-way ANOVA statistical analysis was performed.

[4] = system: C57BL/6J mice; experiment: Thioglycollate peritonitis model, leukocyte counting in peritoneal liquid; type: in vivo, mouse
Description: C57BL/6J (The Jackson Laboratory) female mice were chosen for this experiment. The acute inflammation was induced by thioglycollate injection into the abdominal cavity as described by Hoover-Plow J. L. et al. (Strain and model dependent differences in inflammatory cell recruitment in mice. Inflammation Research, 2008. 57(10): p. 457-463).
Mice were injected intraperitoneally with 0.5 mL of 4% thioglycollate (Becton Dickinson, Cockeysville, MD) and after 6 or 72 hours corresponding to peak neutrophil (6 hours) and macrophage (72 hours) recruitment, peritoneal lavage fluid, and cells were harvested as previously described by Ploplis, V. A. et al. (Plasminogen deficiency differentially affects recruitment of inflammatory cell populations in mice. Blood, 1998. 91(6): p. 2005-2009). The number of neutrophils and macrophages (Tang, L. P. and J. W. Eaton, Fibrin (Ogen) Mediates Acute Inflammatory Responses to Biomaterials. Journal of Experimental Medicine, 1993. 178(6): p. 2147-2156) accumulating in the lavage were determined from the enzyme activity of myeloperoxidase for neutrophils (Himmelhoch, S. R., et al., Purification of myeloperoxidases from the bone marrow of the guinea pig. Biochemistry, 1969. 8(3): p. 914-21) and non-specific esterase for macrophage/monocytes (Torres, J. L., R. S. Rush, and A. R. Main, Physical and chemical characterization of a horse serum carboxylesterase. Arch Biochem Biophys, 1988. 267(1): p. 271-9).
After inducing the inflammation (peritonitis), compound of Formula 2 was injected at a concentration of 12.5 mg/kg (DMSO, 01% in PBS, IP), twice (one day after the other). The next day, mice were sacrificed and the peritoneal liquid was collected from the control and treated mice (n=3 for each group). Two assays were conducted for the estimation of the possible anti-inflammatory effect of compound of Formula 2: leukocyte counting (the total amount and the calculation of the percentage of different leukocyte fractions) and a flow cytometry.

[5] = system: C57BL/6J mice; experiment: Acute dextran sodium sulfate (DSS) induced colitis model; type: in vivo, mouse
Description: The colitis was inducted by adding 1.5% DSS to the drinking water of female C57BL/6J (7-8 weeks old) mice for 5 consecutive days (days 0-4) for all animals in the experimental groups. On day 5, DSS containing water was changed for regular drinking water and treatment was initiated. The working suspension of the compound of Formula 2 was administrated at 15 mg/kg by IV, IP or SC injections at q3w regimen (administered 3 times per week) and at 30 mg/kg by PO at qd regimen (once daily). Treatment continued for 10 days and thereafter mice were euthanized.
Determination of individual body weight of animals was made prior to each dosing and the administered volume was adjusted accordingly. Additional body weights throughout the entire experimental period were taken on a daily bases. The severity of colitis Disease Activity Index (DAI) score was monitored daily according to the criteria shown in Table 3 and calculated as a sum of the weight loss score, the diarrheal score and the hematochezia score. Disease activity index (DAI) based on the methods reported by Friedman et al. (PNAS, 2009) was used.
Mice from all groups were euthanized with isoflurane 24 hours post last dose administration. Colon was collected from each mouse, filled with 4% buffered formalin and colon length was measured. Large intestines were fixed, embedded in paraffin, sections and H&E stained using modified Swiss roll technique. Histological Score evaluation was performed based on: inflammatory cells infiltration and tissue damage, in four compartments of the large intestine graded from 0 to 3.
For tissue damage, discrete lymphoepithelial lesions were scored as 1, mucosal erosions as 2, and extensive mucosal damage and/or extension through deeper structures of the bowel wall as 3. The length of ulceration was measured in mm. The two equally weighted subscores (cell infiltration and tissue damage) at each compartment of the intestine were added as a colitis severity score. Ordinary one-way ANOVA statistical analysis was performed.

[6] = 7.5 μM IV together with 10×10^6 cells, after one and a half hours

COC(=O)c1ccc(COc2c(C=C3C(=O)NC(=O)NC3=O)cccc2C(C)(C)C)cc1 [Formula 2, methyl 4-((2-(tert-butyl)-6-((2,4,6-trioxotetrahydropyrimidin-5(2H)-ylidene)methyl)phenoxy)methyl) benzoate]
homing of the cancer cells to the spleen and liver ([1]; 7.5 μM IV): significantly blocked | reduction of B-lymphocyte homing in liver [1, 6]: around 33% | reduction of B-lymphocyte homing in spleen [1, 6]: around 22% | junctional integrity ([2]; HUVECs co-culture): maintained | Fluttering at HUVEC intercellular junctions ([2]; all HUVECs co-culture experiments): observed | Histological score of joints ([3]; 15 mg/kg IP q3w): significantly reduced | fore and hind limb thickness ([3]; 15 mg/kg IP q3w, day 43): significantly reduced | CIA score ([3]; FIG. 23 legend: 15 mg/kg SC): therapeutic effect | histological evaluation of talus and calcaneum joint sections ([3]; representative sections, treated mouse (FIG. 25B)): No cartilage and bone and erosion and profuse infiltration of inflammatory cells are present | amount of neutrophils and monocytes ([4]; 12.5 mg/kg IP, twice): not affected | increase of the amount of dendritic cells in the peritoneal liquid ([4]; 12.5 mg/kg IP, twice): 2.5 fold | reduction of the amount of lymphocytes in the peritoneal liquid ([4]; 12.5 mg/kg IP, twice): 85% | total amount of leukocytes in the abdominal liquid ([4]; 12.5 mg/kg IP, twice): not affected | White blood cell (WBC) counts of peritoneal fluids ([4]; FIG. 8 legend: 30 μM injected once on the third day, n=6): reduced | Disease Activity Index (DAI) score, PO treated mice ([5]; 30 mg/kg PO qd): maximal effect | colon length, amount by which control groups were shorter than treated groups ([5]; all treated groups vs control groups): approximately 2 cm | Disease Activity Index (DAI) score ([5]; all treated groups: 15 mg/kg IV, IP or SC q3w, 30 mg/kg PO qd, 10 days): significantly decreased | Weight loss score ([5]; treated groups vs control groups): significantly lower | stool formation that readily becomes paste on the anus ([5]; treated groups vs control mice): not detected | Histological score of large intestine ([5]; treated vs control mice): significantly lower

Source: patent US12252472B1, “Barbituric acid derivatives, their preparation and use thereof as leukocyte transmigration inhibitors and for treating inflammatory diseases, autoimmune diseases and cancer” (BAR-ILAN UNIVERSITY, priority 2017, dated 2025)
